Molecules are shown by their SMILES.

The record followed here is patent publication US9328099B2, “Cyanomethylpyrazole carboxamides as janus kinase inhibitors” (Merck Sharp & Dohme Corp., priority 2011, dated 2016).

JAK1, sequence (P23458 875-1153): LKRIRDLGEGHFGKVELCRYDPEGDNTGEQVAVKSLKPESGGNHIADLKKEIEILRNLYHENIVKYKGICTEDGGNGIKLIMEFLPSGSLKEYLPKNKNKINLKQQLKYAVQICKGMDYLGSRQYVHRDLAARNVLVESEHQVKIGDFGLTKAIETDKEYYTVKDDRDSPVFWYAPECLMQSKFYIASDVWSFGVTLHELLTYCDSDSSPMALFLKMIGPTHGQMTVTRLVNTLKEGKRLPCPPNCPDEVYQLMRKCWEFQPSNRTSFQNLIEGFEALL

The test addresses JAK1 (Homo sapiens (Human), UniProt P23458). As to the kind of experiment: Jak Biochemical HTRF Assay, JAK1. To be noted: HTRF biochemical assay, GST-tagged catalytic domain; top concentration tested […]; read-out: JAK1 IC50. The text has this:
Jak Biochemical HTRF Assay Protocol
Subsequent reagent additions employed an Agilent Bravo.
The term IC50 denotes the concentration at which inhibition is half-maximal. Take `COc1cccc(Nc2nn(C3(CC#N)CCN(C(=O)OC(C)(C)C)CC3)cc2C(N)=O)n1` [Example 13-9, tert-butyl 4-(4-carbamoyl-3-(6-methoxypyridin-2-ylamino)-1H-pyrazol-1-yl)-4-(cyanomethyl)piperidine-1-carboxylate]: the half-maximal inhibitory concentration (IC50) came out at 10 nM.
As for `N#CCC1(n2cc(C(N)=O)c(Nc3ccccc3)n2)CCN(Cc2cccc(C#N)c2)CC1` [Example 21-3, 1-[1-(3-cyanobenzyl)-4-(cyanomethyl)piperidin-4-yl]-3-(phenylamino)-1H-pyrazole-4-carboxamide], the concentration for half-maximal inhibition (IC50) was 79 nM.
Next, `N#CCC1(n2cc(C(N)=O)c(Nc3ccccc3)n2)CCN(Cc2cc3ccccc3o2)CC1` [Example 21-20, 1-[1-(1-benzofuran-2-ylmethyl)-4-(cyanomethyl)piperidin-4-yl]-3-(phenylamino)-1H-pyrazole-4-carboxamide]: 10 nM; `N#CCC1(n2cc(C(N)=O)c(Nc3ccnc(F)c3)n2)CCN(CCc2ccccc2)CC1` [Example 22-64, 1-[4-(cyanomethyl)-1-(2-phenylethyl)piperidin-4-yl]-3-[(2-fluoropyridin-4-yl)amino]-1H-pyrazole-4-carboxamide]: 4 nM.
Take `COc1ccccc1CN1CCC(CC#N)(n2cc(C(N)=O)c(Nc3ccnc(F)c3)n2)CC1` [Example 22-66, 1-[4-(cyanomethyl)-1-(2-methoxybenzyl)piperidin-4-yl]-3-[(2-fluoropyridin-4-yl)amino]-1H-pyrazole-4-carboxamide]: the 50% inhibitory concentration (IC50) was found to be 2 nM.
On to `N#CCC1(n2cc(C(N)=O)c(Nc3ccnc(F)c3)n2)CCN(Cc2ccc(O)nc2)CC1` [Example 22-68, 1-{4-(cyanomethyl)-1-[(6-hydroxypyridin-3-yl)methyl]piperidin-4-yl}-3-[(2-fluoropyridin-4-yl)amino]-1H-pyrazole-4-carboxamide], for which the IC50 was 0.1 nM.
With `CC(OC(=O)N1CCC(CC#N)(n2cc(C(N)=O)c(Nc3ccc(F)cc3)n2)CC1)C1CC1` (centres unmarked) [Example 30-12, 1-cyclopropylethyl 4-(4-carbamoyl-3-(4-fluorophenylamino)-1H-pyrazol-1-yl)-4-(cyanomethyl)piperidine-1-carboxylate] the figure was 6 nM.
With `N#CCC1(n2cc(C(N)=O)c(Nc3ccnc(F)c3)n2)CCN(C(=O)OC2CCOC2)CC1` (centres unmarked) [Example 30-16, tetrahydrofuran-3-yl 4-{4-carbamoyl-3-[(2-fluoropyridin-4-yl)amino]-1H-pyrazol-1-yl}-4-(cyanomethyl)piperidine-1-carboxylate] the figure was 0.9 nM; with `N#CCC1(n2cc(C(N)=O)c(Nc3ccc(S(=O)(=O)C(F)(F)F)cc3)n2)CCN(C(=O)OC2COC2)CC1` [Example 30-26, oxetan-3-yl 4-(4-carbamoyl-3-(4-(trifluoromethylsulfonyl)phenylamino)-1H-pyrazol-1-yl)-4-(cyanomethyl)piperidine-1-carboxylate], 0.2 nM; with `N#CCC1(n2cc(C(N)=O)c(Nc3ccccc3)n2)CCN(C(=O)OCCN2CCOCC2)CC1` [Example 30-41, 2-morpholin-4-ylethyl 4-[4-carbamoyl-3-(phenylamino)-1H-pyrazol-1-yl]-4-(cyanomethyl)piperidine-1-carboxylate], 31 nM.
Turning to `N#CCC1(n2cc(C(N)=O)c(Nc3ccccc3)n2)CN(C(=O)OCCc2cccc3ccccc23)C1` [Example 30-54, 2-naphthalen-1-ylethyl 3-[4-carbamoyl-3-(phenylamino)-1H-pyrazol-1-yl]-3-(cyanomethyl)azetidine-1-carboxylate], the IC50 worked out at 375 nM.
Regarding `CC(C)(C)COC(=O)N1CC(CC#N)(n2cc(C(N)=O)c(Nc3ccccc3)n2)C1` [Example 30-56, 2,2-dimethylpropyl 3-[4-carbamoyl-3-(phenylamino)-1H-pyrazol-1-yl]-3-(cyanomethyl)azetidine-1-carboxylate], the concentration for half-maximal inhibition (IC50) stood at 18 nM.
With `N#CCC1(n2cc(C(N)=O)c(Nc3ccccc3)n2)CN(C(=O)OCCc2ccccc2)C1` [Example 30-58, 2-phenylethyl 3-[4-carbamoyl-3-(phenylamino)-1H-pyrazol-1-yl]-3-(cyanomethyl)azetidine-1-carboxylate], the half-inhibitory concentration (IC50) was 76 nM.
Next, `N#CCC1(n2cc(C(N)=O)c(Nc3ccccc3)n2)CN(C(=O)OC2CCOCC2)C1` [Example 30-63, tetrahydro-2H-pyran-4-yl 3-[4-carbamoyl-3-(phenylamino)-1H-pyrazol-1-yl]-3-(cyanomethyl)azetidine-1-carboxylase]: 11 nM; `CN1CCN(CCOC(=O)N2CC(CC#N)(n3cc(C(N)=O)c(Nc4ccccc4)n3)C2)CC1` [Example 30-72, 2-(4-methylpiperazin-1-yl)ethyl 3-[4-carbamoyl-3-(phenylamino)-1H-pyrazol-1-yl]-3-(cyanomethyl)azetidine-1-carboxylate]: 72 nM.
With `CS(=O)(=O)c1ccc(Nc2nn(C3(CC#N)CN(C(=O)OC4CCCC4)C3)cc2C(N)=O)cc1` [Example 30-74, cyclopentyl 3-(4-carbamoyl-3-{[4-(methylsulfonyl)phenyl]amino}-1H-pyrazol-1-yl)-3-(cyanomethyl)azetidine-1-carboxylate] the figure was 6 nM.
Next, `N#CCC1(n2cc(C(N)=O)c(Nc3ccccc3)n2)CCN(C(=O)c2ccccn2)CC1` [Example 34-9, 1-[4-(cyanomethyl)-1-(pyridin-2-ylcarbonyl)piperidin-4-yl]-3-(phenylamino)-1H-pyrazole-4-carboxamide]: 18 nM; `N#CCC1(n2cc(C(N)=O)c(Nc3ccccc3)n2)CCN(C(=O)c2cnccn2)CC1` [Example 34-11, 1-[4-(cyanomethyl)-1-(pyrazin-2-ylcarbonyl)piperidin-4-yl]-3-(phenylamino)-1H-pyrazole-4-carboxamide]: 12 nM; `N#CCC1(n2cc(C(N)=O)c(Nc3ccccc3)n2)CN(C(=O)c2ccccn2)C1` [Example 34-38, 1-[3-(cyanomethyl)-1-(pyridin-2-ylcarbonyl)azetidin-3-yl]-3-(phenylamino)-1H-pyrazole-4-carboxamide]: 59 nM.
In the case of `N#CCC1(n2cc(C(N)=O)c(Nc3ccc(F)cc3)n2)CCN(C(=O)CC(F)(F)F)CC1` [Example 35-1, 1-(4-(Cyanomethyl)-1-(3,3,3-trifluoropropanoyl)piperidin-4-yl)-3-(4-fluorophenylamino)-1H-pyrazole-4-carboxamide], the IC50 came out at 0.1 nM.
With `N#CCC1(n2cc(C(N)=O)c(Nc3ccccc3)n2)CCN(S(=O)(=O)c2ccc(C(F)(F)F)cc2)CC1` [Example 37-13, 1-[4-(cyanomethyl)-1-{[4-(trifluoromethyl)phenyl]sulfonyl}piperidin-4-yl]-3-(phenylamino)-1H-pyrazole-4-carboxamide] the figure was 3 nM.
With `CCOC(=O)C(C)NC(=O)N1CC(CC#N)(n2cc(C(N)=O)c(Nc3ccccc3)n2)C1` (centres unmarked) [Example 38-9, ethyl N-({3-[4-carbamoyl-3-(phenylamino)-1H-pyrazol-1-yl]-3-(cyanomethyl)azetidin-1-yl}carbonyl)alaninate] the figure was 38 nM.
Next, `CCc1ccc(NC(=O)N2CC(CC#N)(n3cc(C(N)=O)c(Nc4ccccc4)n3)C2)cc1` [Example 38-34, 1-{3-(cyanomethyl)-1-[(4-ethylphenyl)carbamoyl]azetidin-3-yl}-3-(phenylamino)-1H-pyrazole-4-carboxamide]: 2 nM.
